≈ marks a conversion by molar mass, not a printed value. Where a SMILES comes first, the peptide text is derived from it. Side-chain parts run from the residue outwards. The star is where a group is joined. Lauroyl = CCCCCCCCCCCC(=O)*
Key:
S. aureus 6538 [1] = conditions: for antimicrobial activity against planktonic S. aureus (in words): Figure 4, highest tested 250 mg/L; for MBC: 6538, 24 h; for concentration at which reduction of staphylococcal cell number was observed: planktonic S. aureus, Figure 4
Experimental: For experimental purposes, the American type culture collection’s strains of S. aureus 6538 and C. acnes 6919 were applied.
The following standard procedure of MBC evaluation according to CLSI (Methods for Determining Bactericidal Activity of Antimicrobial Agents; Approved Guideline, document M26A, Global Laboratory Standards for a Healthier World, https://clsi.org, accessed on 15 December 2020) was performed. The 96-well plates with bacteria and peptide concentrations were performed and incubated as it was described in Section 2 of Material and Methods. Then the M-H agar plates with spots containing staphylococcal culture were incubated at 37 °C for 24 h. Lack of colony presence in the spot after incubation was considered as lack of microorganism growth, while presence of microbial colony in the spot was considered presence of microorganism growth. All experiments were performed in triplicate.

[2] = DPPH radical scavenging activity; conditions: 25 °C, absorbance at 522 nm, triplicate
Experimental: The DPPH spectrometric method described by Brand, Williams et al. was applied due to its efficiency on lipophilic and hydrophilic samples [60]. The evaluation of free radical scavenging capacity (FRSC) was based on DPPH (Merck, Darmstadt, Germany) absorbance intensity resulting from its reaction with surfactants. A PG Instruments UV–Vis T60 spectrophotometer (Alab, Warszawa, Poland), interfaced with a computer with a quartz cuvette and of path length 1.0 cm at 25 °C, using a total volume of 3.0 mL, was applied in the range 190–900 nm. As a sample (As) 1.0 mL of P1–P6 aqueous solution (2 mg/mL) and 2.0 mL of ethanolic DPPH solution (5.9·10–2 mg/mL) were mixed and evaluated. As a blank (Ab), 1.0 mL of water, mixed with 2.0 mL of ethanol, was used. Absorbance decrease at 522 nm was measured in 2 min intervals for 6 h. FRSC was calculated as a percentage with the following equation: FRSC (%) = [(Ab – As)/Ab] × 100%. All measurements were performed in triplicate.

S. aureus biofilm = assay: Activity against Staphylococcus aureus biofilm (MBEC, TTC); assay type: cell-based; conditions: for reduction of staphylococcal biofilm: 24 h, TTC read-out 490 nm, ANOVA with Tukey's test p < 0.05
Experimental: A total of 100µL of S. aureus suspension (10^5 cfu/mL) in TSB) medium was introduced to wells of 96-well plate and incubated at 37 °C/24 h without shaking. Next, whole medium was removed, leaving biofilm-forming organisms attached to the bottom of a 96-well plate. Subsequently, geometric dilutions of peptides in TSB (62.5–250 mg/L) were applied to the wells and left for another 24 h at 37 °C. The culture with no added peptide served as a positive control for microorganism growth, while the well containing the sterile TSB only served as a sterility control for the experiment. After incubation, 5 µL of triphenyl tetrazolium chloride (TTC, Sigma Aldrich, Taufkirchern, Germany) was added to each well and incubated for 5 h at 37 °C. A change of colorless TTC to red formazan confirmed the presence of metabolically active microorganisms. Next, the formazan was dissolved in methanol and its concentration was measured using a Thermo Scientific Multiskan Go spectrometer with a wavelength of 490 nm. In parallel, biofilms in plate wells were agitated using an automated pipette, removed from 96-well plates, and spotted on a stable (M-H) agar plate (Biomaxima, Lublin, Poland) where they were incubated for 48 h. The presence of living colonies on agar indicated the lack of MBEC, while the absence of colonies in the place where spotting was performed confirmed that the particular concentration of peptide can be considered the MBEC.

S. aureus = conditions: 24 h
C. acnes = conditions: 24 h
S. aureus 6538 [3] = assay: Minimal inhibitory concentration against planktonic Staphylococcus aureus; assay type: cell-based; conditions: M-H broth, 24 h/37 °C, tested 0.48-250 mg/L, turbidity 580 nm, triplicate
Experimental: A loop of staphylococcal culture grown on Columbia agar plate (BioMaxima, Poland) was transferred to liquid tryptone soya broth (TSB, BTL) and incubated at 37 °C for 24 h. Next, culture’s optical density of 1 McFarland (3 × 10^8 cfu/mL) was established using a densitometer (Biomerieux, Poland). Subsequently, the suspension was diluted in the Miller-Hinton Broth (M-H, BioMaxima, Poland) to reach the density of 1 × 10^5 cells/mL. Afterwards, serial dilutions of each peptide was performed in M-H Broth in 96-well plate (BioStar, Germany). Next 100 μL of previously-prepared microbial suspension was added to each well. The highest concentration of each peptide tested in this experimental setting was thus 250 mg/L and it dropped twice in each subsequent well of 96-well plate up to 0.48 mg/L. Plates were incubated for 24 h/37 °C in shaker (Lab Companion, JeioTech, Daejeon, Korea). After incubation, the turbidity of bacterial culture was measured using Thermo Scientific Multiskan Go spectrometer (Thermo-Fischer Scientific, Vantaa, Finland) with wavelength of 580 nm. The microbial culture where no peptide was added served as growth control. The sterility control setting was M-H broth with no microorganism added. The tetrazolium salt (TTC) test served as additional analysis of microbial cell number reduction. All experiments were performed in triplicate.

| Compound | antimicrobial activity against planktonic S. aureus (in words) (S. aureus 6538 [1]) | time required for the extinction of fifty percent of the DPPH ([2]; peptide 2 mg/mL aqueous (1.0 mL) + 2.0 mL ethanolic DPPH 5.9·10–2 mg/mL) [min] | reduction of staphylococcal biofilm (S. aureus biofilm; exposure to 250 mg/L) | MBC (S. aureus 6538 [1]) [µg/mL] | concentration at which reduction of staphylococcal cell number was observed (S. aureus 6538 [1]) [mg/L] | Inhibition Zone (S. aureus) [mm] | Inhibition Zone (C. acnes) [mm] | MBEC (S. aureus biofilm; 24 h S. aureus biofilm in TSB, peptides 62.5–250 mg/L for 24 h at 37 °C, spotting on M-H agar) | reduction of staphylococcal biofilm (S. aureus biofilm; exposure to 125 mg/L) | DPPH radicals inhibited over six hours ([2]; peptide 2 mg/mL, six hours) [%] | MIC (S. aureus 6538 [3]) |
| --- | --- | --- | --- | --- | --- | --- | --- | --- | --- | --- | --- |
| (WR)2-KWR-NH2 [Peptide P3] | recordable antimicrobial activity, however only in the highest concentrations of 250 mg/L |  |  |  |  |  |  |  |  |  |  |
| NCCCC[C@H](NC(=O)[C@H](Cc1c[nH]c2ccccc12)NC(=O)[C@@H](N)CCCCN)C(=O)NCCCC[C@H](NC(=O)[C@H](CCCCN)NC(=O)[C@H](Cc1c[nH]c2ccccc12)NC(=O)[C@@H](N)CCCCN)C(=O)N[C@@H](Cc1c[nH]c2ccccc12)C(=O)N[C@@H](Cc1c[nH]c2ccccc12)C(=O)N[C@@H](Cc1c[nH]c2ccccc12)C(N)=O [Peptide P5, (KWK)2-KWWW-NH2] (H-KWKK([Lys-Trp-Lys])WWW-NH2; N-terminus assumed) |  | 124 | significant reduction | 250 (≈ 157 µM) | 125 | 1 | 2 |  |  |  |  |
| NCCCC[C@H](NC(=O)[C@H](Cc1c[nH]c2ccccc12)NC(=O)[C@H](CCCCN)NC(=O)[C@H](Cc1c[nH]c2ccccc12)NC(=O)[C@H](CCCCNC(=O)[C@H](CCCCN)NC(=O)[C@H](Cc1c[nH]c2ccccc12)NC(=O)[C@H](CCCCN)NC(=O)[C@@H](N)Cc1c[nH]c2ccccc12)NC(=O)[C@H](CCCCN)NC(=O)[C@H](Cc1c[nH]c2ccccc12)NC(=O)[C@H](CCCCN)NC(=O)[C@@H](N)Cc1c[nH]c2ccccc12)C(N)=O [Peptide P2, (WKWK)2-KWKWK-NH2] (H-WKWKK([Lys-Trp-Lys-Trp])WKWK-NH2) |  |  | significant reduction |  |  | 0 | 1.6 ± 0.9 | not achieved | significant reduction |  |  |
| CCCCCCCCCCCC(=O)NCCCC[C@H](NC(=O)CCCCCCCCCCC)C(=O)N[C@@H](CCCCN)C(=O)N[C@@H](CCCCN)C(=O)N[C@@H](CCCCN)C(N)=O [Peptide P4, (C12)2-KKKK-NH2] (Lauroyl-K(Lauroyl)KKK-NH2) | highest anti-staphylococcal activity |  | significant reduction |  | 62.5 | 0 | 0 |  | significant reduction | < 20 |  |
| (WK)2-KWK-NH2 [Peptide P1] | lack of antimicrobial activity |  |  |  |  |  |  |  |  |  | not observed |
| NCCCC[C@H](NC(=O)[C@@H](N)CCCCN)C(=O)NCCCC[C@H](NC(=O)[C@H](CCCCN)NC(=O)[C@@H](N)CCCCN)C(=O)N[C@@H](Cc1c[nH]c2ccccc12)C(=O)N[C@@H](Cc1c[nH]c2ccccc12)C(=O)N[C@@H](Cc1c[nH]c2ccccc12)C(N)=O [Peptide P6, (KK)2-KWWW-NH2] (H-KKK([Lys-Lys])WWW-NH2; N-terminus assumed) |  |  | significant reduction | 250 (≈ 205 µM) | 125 | 0 | 0 |  | significant reduction |  |  |

— publication PMC8306634, “Antimicrobial and Antioxidative Activity of Newly Synthesized Peptides Absorbed into Bacterial Cellulose Carrier against Acne vulgaris” (International Journal of Molecular Sciences, 2021)
